ChEMBL document CHEMBL5579824, “Novel Hsp90-Targeting PROTACs: Enhanced synergy with cisplatin in combination therapy of cervical cancer” (Eur J Med Chem, 2024)
Calls of active or inactive are those of the source. No cut-off for these calls is given here.

Legend:
SiHa [1] = experiment: Induction of cell cycle arrest in human SiHa cells assessed as accumulation of cells at G2/M pahse at 2.5 uM incubated after 48 hrs by PI staining based flow cytometry (reference value: 7.37 %); assay type: functional
SiHa [2] = experiment: Synergistic antiproliferative activity against human SiHa cells assessed as combination index at 0.5 uM incubated for 72 hrs in presence of 10 uM cisplatin by CCK-8 assay; assay type: functional
[3] = target: Serine/threonine-protein kinase AKT (Homo sapiens) (UniProt P31751+Q9Y243+P31749); experiment: Inhibition of AKT phosphorylation in human SiHa cells incubated for 10 hrs by Western blot analysis; assay type: cell-based; conditions: dose 0.01-1 µM
Chain of Serine/threonine-protein kinase AKT (Homo sapiens) (P31749 whole entry, looked up): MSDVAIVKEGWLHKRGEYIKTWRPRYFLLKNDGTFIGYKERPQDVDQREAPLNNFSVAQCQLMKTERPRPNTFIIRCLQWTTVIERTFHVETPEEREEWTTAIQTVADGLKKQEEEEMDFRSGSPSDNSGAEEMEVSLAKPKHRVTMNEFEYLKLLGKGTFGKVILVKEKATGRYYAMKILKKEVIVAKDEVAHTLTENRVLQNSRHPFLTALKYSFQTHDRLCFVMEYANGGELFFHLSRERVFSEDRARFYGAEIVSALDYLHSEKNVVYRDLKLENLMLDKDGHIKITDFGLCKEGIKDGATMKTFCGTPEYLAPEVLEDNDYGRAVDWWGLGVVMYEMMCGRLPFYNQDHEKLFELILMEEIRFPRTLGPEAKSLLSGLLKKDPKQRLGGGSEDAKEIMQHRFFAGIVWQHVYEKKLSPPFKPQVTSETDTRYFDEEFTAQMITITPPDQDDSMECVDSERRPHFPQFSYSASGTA
Chain of Serine/threonine-protein kinase AKT (Homo sapiens) (P31751 whole entry, looked up): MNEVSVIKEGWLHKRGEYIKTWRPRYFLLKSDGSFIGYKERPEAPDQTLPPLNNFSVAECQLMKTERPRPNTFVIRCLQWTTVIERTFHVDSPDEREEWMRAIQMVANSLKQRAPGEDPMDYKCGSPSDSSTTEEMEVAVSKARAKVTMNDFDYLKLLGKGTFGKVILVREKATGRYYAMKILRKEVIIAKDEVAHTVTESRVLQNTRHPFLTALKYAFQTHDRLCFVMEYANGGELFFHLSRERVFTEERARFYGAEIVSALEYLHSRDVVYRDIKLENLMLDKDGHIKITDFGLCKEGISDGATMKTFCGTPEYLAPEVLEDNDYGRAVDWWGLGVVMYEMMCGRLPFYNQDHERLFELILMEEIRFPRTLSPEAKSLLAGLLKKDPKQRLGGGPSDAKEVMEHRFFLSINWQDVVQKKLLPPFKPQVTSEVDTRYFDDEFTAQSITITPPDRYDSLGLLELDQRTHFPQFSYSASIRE
Chain of Serine/threonine-protein kinase AKT (Homo sapiens) (Q9Y243 whole entry, looked up): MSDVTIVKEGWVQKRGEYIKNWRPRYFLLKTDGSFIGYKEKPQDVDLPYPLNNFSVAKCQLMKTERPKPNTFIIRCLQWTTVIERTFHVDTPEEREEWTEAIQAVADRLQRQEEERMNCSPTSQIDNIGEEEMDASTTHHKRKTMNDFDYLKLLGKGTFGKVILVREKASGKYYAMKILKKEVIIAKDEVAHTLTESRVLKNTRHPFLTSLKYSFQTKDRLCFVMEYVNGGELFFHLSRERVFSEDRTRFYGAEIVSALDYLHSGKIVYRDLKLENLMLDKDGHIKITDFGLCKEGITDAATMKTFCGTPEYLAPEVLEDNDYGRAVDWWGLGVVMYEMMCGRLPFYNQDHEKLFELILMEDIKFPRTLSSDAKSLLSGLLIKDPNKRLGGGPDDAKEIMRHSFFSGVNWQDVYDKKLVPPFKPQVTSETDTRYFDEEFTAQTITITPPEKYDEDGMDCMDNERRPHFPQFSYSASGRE

C-33-A = experiment: Antiproliferative activity against human C-33-A cells assessed as reduction in cell viability incubated for 72 hrs by CCK-8 assay; assay type: functional, cell-based
SiHa [4] = experiment: Synergistic antiproliferative activity against human SiHa cells assessed as combination index at 5 uM incubated for 72 hrs in presence of 3.16 uM cisplatin by CCK-8 assay; assay type: functional
[5] = target: T1, Protein cereblon/Heat shock protein HSP 90-alpha/Heat shock protein HSP 90-beta (Homo sapiens) (UniProt P07900+P08238+Q96SW2); experiment: Protac activity at CRBN/Hsp90 in human Ca-Ski cells assessed as induction of Hsp90 degradation at 0.05 uM incubated for 10 hrs by Western blot analysis; assay type: cell-based
SiHa [6] = experiment: Induction of cell cycle arrest in human SiHa cells assessed as accumulation of cells at G2/M pahse at 10 uM incubated after 48 hrs by PI staining based flow cytometry (reference value: 7.37 %); assay type: functional
SiHa [7] = experiment: Induction of apoptosis in human SiHa cells assessed as late apoptotic cells at 10 uM incubated after 48 hrs by annexin V-FITC/PI staining based flow cytometry (reference value: 6.93 %); assay type: functional
SiHa [8] = experiment: Synergistic antiproliferative activity against human SiHa cells assessed as combination index at 1 uM incubated for 72 hrs in presence of 1 uM cisplatin by CCK-8 assay; assay type: functional
[9] = target: T1, Protein cereblon/Heat shock protein HSP 90-alpha/Heat shock protein HSP 90-beta (Homo sapiens); experiment: Protac activity at CRBN/Hsp90 in human SiHa cells assessed as induction of Hsp90 degradation at 1 uM incubated for 10 hrs by Western blot analysis; assay type: cell-based
SiHa [10] = experiment: Induction of apoptosis in human SiHa cells assessed as increase in apoptotic cells incubated after 48 hrs by annexin V-FITC/PI staining based flow cytometry; assay type: functional, cell-based; conditions: dose 0.05-10 µM
SiHa [11] = experiment: Synergistic antitumor activity against human SiHa cells xenografted in BALB/c nude mouse assessed as reduction in Ki67 protein expression at 2 mg/kg, ip co-treated with cisplatin separately for every two days by immunohistochemical analysis; assay type: functional, organism-based
SiHa [12] = experiment: Synergistic antiproliferative activity against human SiHa cells assessed as combination index at 0.1 uM incubated for 72 hrs in presence of 0.01 uM cisplatin by CCK-8 assay; assay type: functional
SiHa [13] = experiment: Induction of cell cycle arrest in human SiHa cells assessed as increase in accumulation of cells at G2/M pahse incubated after 48 hrs by PI staining based flow cytometry; assay type: functional; conditions: dose 0.05-10 µM
[14] = target: T1, Protein cereblon/Heat shock protein HSP 90-alpha/Heat shock protein HSP 90-beta (Homo sapiens); experiment: Protac activity at CRBN/Hsp90 in human SiHa cells assessed as induction of Hsp90 degradation at 0.05 uM incubated for 2 hrs in presence of bortezomib by Western blot analysis; assay type: cell-based
SiHa [15] = experiment: Induction of apoptosis in human SiHa cells assessed as late apoptotic cells at 2.5 uM incubated after 48 hrs by annexin V-FITC/PI staining based flow cytometry (reference value: 6.93 %); assay type: functional
SiHa [16] = experiment: Synergistic antiproliferative activity against human SiHa cells assessed as combination index at 0.75 uM incubated for 72 hrs in presence of 0.32 uM cisplatin by CCK-8 assay; assay type: functional
SiHa [17] = experiment: Synergistic antiproliferative activity against human SiHa cells assessed as combination index at 0.05 uM incubated for 72 hrs in presence of 3.16 uM cisplatin by CCK-8 assay; assay type: functional
SiHa [18] = experiment: Synergistic antiproliferative activity against human SiHa cells assessed as combination index at 10 uM incubated for 72 hrs in presence of 1 uM cisplatin by CCK-8 assay; assay type: functional
SiHa [19] = experiment: Synergistic antiproliferative activity against human SiHa cells assessed as combination index at 10 uM incubated for 72 hrs in presence of 10 uM cisplatin by CCK-8 assay; assay type: functional
SiHa [20] = experiment: Induction of apoptosis in human SiHa cells assessed as late apoptotic cells at 1 uM incubated after 48 hrs by annexin V-FITC/PI staining based flow cytometry (reference value: 6.93 %); assay type: functional
SiHa [21] = experiment: Induction of cell cycle arrest in human SiHa cells assessed as accumulation of cells at S pahse at 0.05 uM incubated after 48 hrs by PI staining based flow cytometry (reference value: 8.51 %); assay type: functional
SiHa [22] = experiment: Synergistic antiproliferative activity against human SiHa cells assessed as combination index at 0.5 uM incubated for 72 hrs in presence of 0.32 uM cisplatin by CCK-8 assay; assay type: functional
[23] = target: T1, Protein cereblon/Heat shock protein HSP 90-alpha/Heat shock protein HSP 90-beta (Homo sapiens); experiment: Protac activity at CRBN/Hsp90 in human SiHa cells assessed as induction of Hsp90 degradation (causing hook effect) at > 0.075 uM incubated for 10 hrs by Western blot analysis; assay type: cell-based
[24] = Toxicity in BALB/c nude mouse xenografted with human SiHa cells assessed as body weight weight loss at 2 mg/kg, ip; assay type: organism-based; conditions: in vivo
SiHa [25] = experiment: Synergistic antiproliferative activity against human SiHa cells assessed as combination index at 1 uM incubated for 72 hrs in presence of 0.32 uM cisplatin by CCK-8 assay; assay type: functional
SiHa [26] = experiment: Synergistic antiproliferative activity against human SiHa cells assessed as combination index at 0.5 uM incubated for 72 hrs in presence of 0.01 uM cisplatin by CCK-8 assay; assay type: functional
SiHa [27] = experiment: Synergistic antiproliferative activity against human SiHa cells assessed as combination index at 0.1 uM incubated for 72 hrs in presence of 0.1 uM cisplatin by CCK-8 assay; assay type: functional
SiHa [28] = experiment: Induction of apoptosis in human SiHa cells assessed as necrotic cells at 0.05 uM incubated after 48 hrs by annexin V-FITC/PI staining based flow cytometry (reference value: 0.08 %); assay type: functional
SiHa [29] = experiment: Induction of apoptosis in human SiHa cells assessed as early apoptotic cells at 0.05 uM incubated after 48 hrs by annexin V-FITC/PI staining based flow cytometry (reference value: 2.05 %); assay type: functional
SiHa [30] = experiment: Synergistic antiproliferative activity against human SiHa cells assessed as combination index at 5 uM incubated for 72 hrs in presence of 0.01 uM cisplatin by CCK-8 assay; assay type: functional
SiHa [31] = experiment: Synergistic antiproliferative activity against human SiHa cells assessed as combination index at 0.75 uM incubated for 72 hrs in presence of 0.03 uM cisplatin by CCK-8 assay; assay type: functional
SiHa [32] = experiment: Induction of apoptosis in human SiHa cells assessed as early apoptotic cells at 2.5 uM incubated after 48 hrs by annexin V-FITC/PI staining based flow cytometry (reference value: 2.05 %); assay type: functional
SiHa [33] = experiment: Synergistic antiproliferative activity against human SiHa cells assessed as combination index at 10 uM incubated for 72 hrs in presence of 31.62 uM cisplatin by CCK-8 assay; assay type: functional

inhibition [3]: Active
Activity [5]: Active
Activity [9]: Active
Activity [14]: inactive
Activity [23]: inactive
SMILES: CC1(C)CC(=O)c2c(C(F)(F)F)nn(-c3ccc(C(N)=O)c(N[C@H]4CC[C@H](OC(=O)CNC(=O)CCCCCCCNc5cccc6c5CN(C5CCC(=O)NC5=O)C6=O)CC4)c3)c2C1 (some centres undefined)
Activity (SiHa [1]): 25.47%
CI (SiHa [2]): 0.17
IC50 (C-33-A): 70 nM
CI (SiHa [4]): 0.65
Activity (SiHa [6]): 24.06%
Activity (SiHa [7]): 29.96%
CI (SiHa [8]): 0.18
Activity (SiHa [10]): Dose-Dependent Effect
Activity (SiHa [11]): Active
CI (SiHa [12]): 3.04
Activity (SiHa [13]): Dose-Dependent Effect
Activity (SiHa [15]): 22.71%
CI (SiHa [16]): 0.17
CI (SiHa [17]): 1.01
CI (SiHa [18]): 1.78
CI (SiHa [19]): 1.1
Activity (SiHa [20]): 24.2%
Activity (SiHa [21]): 10.84%
CI (SiHa [22]): 0.12
Activity [24]: Non-Toxic
CI (SiHa [25]): 0.2
CI (SiHa [26]): 0.18
CI (SiHa [27]): 0.49
Activity (SiHa [28]): 0.1%
Activity (SiHa [29]): 2.44%
CI (SiHa [30]): 1.02
CI (SiHa [31]): 0.19
Activity (SiHa [32]): 21.35%
CI (SiHa [33]): 0.97
